Data set [1] in a line: logP by HPLC on reversed-phase columns (C 18), method [a], acidic range pH 2.3. It is filed as physicochemical. As to conditions: for chromatographic logP: pH 2.3, logP (pH2.3). The protocol:
(§1) The logP values were determined in accordance with EEC Directive 79/831 Annex V.A8 by HPLC (High Performance Liquid Chromatography) on reversed-phase columns (C 18), using the methods below:
[a] The determination is carried out in the acidic range at pH 2.3 using the mobile phases 0.1% aqueous phosphoric acid and acetonitrile, linear gradient from 10% acetonitrile to 95% acetonitrile.

For a further data set, the system named is Sphaerotheca fuliginea. The data set is described as follows: Sphaerotheca test (cucumber) / protective. The settings on record: Podosphaera fuliginea, 168 h, active compound concentration 500 ppm, evaluation 7 days after inoculation, read-out: efficacy. It counts as in vivo. The protocol:
The plants are subsequently placed in a greenhouse at 70% relative atmospheric humidity and a temperature of 23° C.

A short description of data set [2]: logP by LC-MS on reversed-phase columns (C 18), method [b], acidic range pH 2.7. It is filed as physicochemical. As to conditions: pH 2.7, log p. The protocol:
as §1
[b] The LC-MS determination in the acidic range is carried out at pH 2.7 using the mobile phases 0.1% aqueous formic acid and acetonitrile (contains 0.1% formic acid), linear gradient from 10% acetonitrile to 95% acetonitrile.

A further data set relates to Leptosphaeria nodorum. The data set is described as follows: Leptosphaeria nodorum test (wheat) / protective. The settings on record: Parastagonospora nodorum, active compound concentration 500 ppm, evaluation 7-9 days after inoculation, read-out: efficacy. It is filed as in vivo. On the procedure: Thereafter, the plants are placed in a greenhouse at 90% relative atmospheric humidity and a temperature of 22° C.

A short description of data set [3]: logP by LC-MS on reversed-phase columns (C 18), method [c], neutral range pH 7.8. It is filed as physicochemical. The settings on record: pH 7.8. On the procedure: as §1
[c] The LC-MS determination in the neutral range is carried out at pH 7.8 using the mobile phases 0.001 molar aqueous ammonium bicarbonate solution and acetonitrile, linear gradient from 10% acetonitrile to 95% acetonitrile.

For a further data set, the system named is Pyricularia oryzae. The data set is described as follows: whole plant or invertebrate. It is filed as in vivo. As to conditions: 120 h, read-out: efficacy.

One may read the chromatographic logP as a lipophilicity value derived from retention on a column. `COCC(O)c1cccc([N+](=O)[O-])c1` (stereo not drawn) [2-methoxy-1-(3-nitrophenyl)ethanol, 2-Methoxy-1-(3-nitrophenyl)ethanol]: the chromatographic logP in data set [1] came out at 1.35.

As for `COCc1cccc(Nc2ncc(Cl)c(NC(C)(C)C(C)=O)n2)c1` [Example 9], in data set [1] (pH 2.3), the log p is 1.99[a].

Turning to `CSC(C)c1cccc(Nc2ncc(C(F)(F)F)c(NC3CCC3)n2)c1` (stereo not drawn) [Example 18], the pest or weed control at 500 ppm with Sphaerotheca fuliginea and in the data set with Leptosphaeria nodorum was not below 70% each time. For the same compound, in data set [2], the chromatographic logP amounted to 4.34.

As for `COCc1cccc(Nc2ncc(Cl)c(NCC(F)F)n2)c1` [Example 22], the pest or weed control at 500 ppm in the data set with Sphaerotheca fuliginea and in the data set on Leptosphaeria nodorum was not below 70% each time. The compound further came in with a chromatographic logP in data set [2] of 1.99.

Take `CCCSc1cccc(Nc2ncc(Cl)c(NCC(F)(F)F)n2)c1` [Example 30]: the pest or weed control at 500 ppm in the data set on Sphaerotheca fuliginea is not below 70%. The compound further displayed a chromatographic logP in data set [2] of 4.08.

Turning to `CCSCc1cccc(Nc2ncc(Cl)c(NCC(F)(F)F)n2)c1` [Example 32], the pest or weed control at 500 ppm in the data set with Sphaerotheca fuliginea was not below 70%. In data set [2], this compound showed a chromatographic logP of 3.49.

Take `COCc1cccc(Nc2ncc(Cl)c(NCCCN3CCCCCC3=O)n2)c1` [Example 52]: in data set [1] (pH 2.3), the log p is 1.67[a].

Regarding `COCCOc1cccc(Nc2ncc(Br)c(NC3CC3)n2)c1` [Example 67], the pest or weed control at 500 ppm in the data set with Sphaerotheca fuliginea and with Leptosphaeria nodorum was not below 70% throughout. Further, the chromatographic logP in data set [2] came to 1.95.

As for `CCN(C)c1nc(Nc2cccc(COC)c2)ncc1Cl` [Example 85], the pest or weed control at 500 ppm in the data set with Sphaerotheca fuliginea and in the data set with Leptosphaeria nodorum was not below 70% throughout. Besides, the values for the chromatographic logP in data set [2] and in data set [3] were 2.14 and 3.7, respectively.

In the case of `CCCSc1ccc(Nc2ncc(Cl)c(NC3CC3)n2)cc1` [Example 96], the chromatographic logP in data set [2] was 3.09. In addition, in the data set with Leptosphaeria nodorum, the pest or weed control at 500 ppm is not below 70%. In the data set with Pyricularia oryzae, the pest or weed control at 250 ppm was not below 80%.

For the compound `CCSC(CC)c1cccc(Nc2ncc(Cl)c(NC3CC3)n2)c1` (stereo not drawn) [Example 115], the pest or weed control at 500 ppm with Sphaerotheca fuliginea and in the data set with Leptosphaeria nodorum was not below 70% in each case. In addition, the results for the chromatographic logP in data set [2] and in data set [3] were 3.33 and 4.69, respectively.

For `COCc1cccc(Nc2ncc(Cl)c(NCC(C)C)n2)c1` [Example 148], the pest or weed control at 500 ppm with Sphaerotheca fuliginea and in the data set with Leptosphaeria nodorum was not below 70% in each case. The chromatographic logP in data set [2] was found to be 2.08.

Turning to `CCCNc1nc(Nc2cccc(COC)c2)ncc1Cl` [Example 149], the pest or weed control at 500 ppm in the data set on Sphaerotheca fuliginea and in the data set on Leptosphaeria nodorum was not below 70% throughout. In data set [2], this compound gave a chromatographic logP of 1.72.

Consider `CCS(=O)(=O)C(C)c1cccc(Nc2ncc(Cl)c(NC(C)C)n2)c1` (stereo not drawn) [Example 150], for which the pest or weed control at 500 ppm in the data set with Sphaerotheca fuliginea and with Leptosphaeria nodorum was not below 70% each time. Further, the chromatographic logP is 1.65 in data set [2] and 2.89 in data set [3].

With `CCC(C)[S+]([O-])C(C)c1cccc(Nc2ncc(C(F)(F)F)c(NC3CC3)n2)c1` (stereo not drawn) [Example 160], the pest or weed control at 500 ppm with Sphaerotheca fuliginea and with Leptosphaeria nodorum was not below 70% throughout. The results for the chromatographic logP in data set [2] and in data set [3] were 2.85 and 3.11, respectively.

In the case of `CCC(C)S(=O)(=O)C(C)c1cccc(Nc2ncc(C(F)(F)F)c(NC3CC3)n2)c1` (stereo not drawn) [Example 187], the pest or weed control at 500 ppm with Sphaerotheca fuliginea and with Leptosphaeria nodorum was not below 70% each time. For the same compound, the chromatographic logP in data set [2] stood at 3.14; in data set [3], 3.34.

For the compound `COCc1cccc(Nc2ncc(Cl)c(N(C)C3CC3C)n2)c1` (stereo not drawn) [Example 199], the pest or weed control at 500 ppm with Sphaerotheca fuliginea and in the data set with Leptosphaeria nodorum was not below 70% each time. Further, the chromatographic logP in data set [2] was found to be 3.23; in data set [3] it was 4.36.

Turning to `CCCC[S+]([O-])c1cccc(Nc2ncc(C(F)(F)F)c(NC3CCC3)n2)c1` (stereo not drawn) [Example 203], the pest or weed control at 500 ppm with Sphaerotheca fuliginea and in the data set with Leptosphaeria nodorum was not below 70% each time. The chromatographic logP in data set [2] amounted to 3.4; in data set [3], 3.67.

On to `CCSCc1cccc(Nc2ncc(Br)c(NC3CC3)n2)c1` [Example 218], for which the pest or weed control at 500 ppm with Sphaerotheca fuliginea and in the data set on Leptosphaeria nodorum was not below 70% throughout. This compound also showed a chromatographic logP in data set [2] of 2.79.

For the compound `CCSCc1cccc(Nc2ncc(Cl)c(NC3CCC3)n2)c1` [Example 219], the pest or weed control at 500 ppm in the data set on Sphaerotheca fuliginea and in the data set with Leptosphaeria nodorum was not below 70% in each case. Further, the chromatographic logP in data set [2] came to 3; in data set [3], 4.44.

As for `COCC(=O)c1cccc(Nc2ncc(C(F)(F)F)c(NC3CC3)n2)c1` [Example 225], the pest or weed control at 500 ppm in the data set with Sphaerotheca fuliginea and with Leptosphaeria nodorum was not below 70% in each case. The chromatographic logP in data set [2] came to 2.54.

With `COC(C)c1cccc(Nc2ncc(Cl)c(NC3CC3C)n2)c1` (stereo not drawn) [Example 228], the pest or weed control at 500 ppm in the data set on Sphaerotheca fuliginea and in the data set with Leptosphaeria nodorum was not below 70% throughout. In addition, the chromatographic logP in data set [2] was determined as 0.95.

In the case of `CCSc1cccc(Nc2ncc(C(F)(F)F)c(NC3CC(C)C3)n2)c1` (stereo not drawn) [Example 234], the values for the chromatographic logP in data set [2] and in data set [3] were 4.09 and 5.34, respectively. Also, the pest or weed control at 500 ppm in the data set on Leptosphaeria nodorum is not below 70%.

On to `CCCSc1cccc(Nc2ncc(C(F)(F)F)c(NC3CC3C)n2)c1` (stereo not drawn) [Example 235], for which the chromatographic logP in data set [2] turned out to be 4.9; in data set [3] it was 5.23. Also, in the data set with Leptosphaeria nodorum, the pest or weed control at 500 ppm is not below 70%.

`Clc1ncc(Br)c(NC2CCC2)n1` [Example V-2, 5-Bromo-2-chloro-N-cyclobutylpyrimidin-4-amine] came in with a chromatographic logP in data set [1] of 2.86.

Consider `Clc1ncc(I)c(NC2CCC2)n1` [Example V-3, 2-Chloro-N-cyclobutyl-5-iodine-pyrimidin-4-amine], for which the “logP (pH2.3)” value in data set [1] (pH 2.3, HPLC reversed-phase C 18) is reported as 3.08.

In data set [1], `Clc1ncc(Cl)c(NC2CC2)n1` [Example V-4, 2,5-Dichloro-N-cyclopropylpyrimidin-4-amine] displayed a chromatographic logP of 1.77.

In data set [1], `FC(F)(F)c1cnc(Cl)nc1NC1CC1` [Example V-21, 2-Chloro-N-cyclopropyl-5-(trifluoromethyl)pyrimidin-4-amine] yielded a chromatographic logP of 2.38.

Consider `FC(F)(F)c1cnc(Cl)nc1NCC1CC1` [Example V-22, 2-Chloro-N-(cyclopropylmethyl)-5-(trifluoromethyl)pyrimidin-4-amine], for which the chromatographic logP in data set [1] stood at 2.98.

For the compound `CCC(SC)c1cccc(N)c1` (stereo not drawn) [IVc-I-1, 3-[1-(Methylsulphanyl)propyl]aniline], the chromatographic logP in data set [1] came to 1.49.

Consider `CSC(C)c1cccc(N)c1` (stereo not drawn) [IVc-I-2], for which, in data set [1] (pH 2.3), the “logP (pH2.3)” value amounted to 1.03.

In the case of `CCSC(CC)c1cccc(N)c1` (stereo not drawn) [IVc-I-3, 3-[1-(Ethylsulphanyl)propyl]aniline], the chromatographic logP in data set [1] worked out at 1.94.

Take `CCSC(C)c1cccc(N)c1` (stereo not drawn) [IVc-I-4, 3-[1-(Ethylsulphanyl)ethyl]aniline]: the chromatographic logP in data set [1] amounted to 1.46.

In turn, `COCC(O)c1cccc(N)c1` (stereo not drawn) [IVc-I-5, 1-(3-Aminophenyl)-2-methoxyethanol] registered a chromatographic logP in data set [1] of 0.51.

The compound `COCCOC(c1cccc(N)c1)C(F)(F)F` (stereo not drawn) [IVc-I-6, 3-[2,2,2-Trifluoro-1-(2-methoxyethoxy)ethyl]aniline] had a chromatographic logP in data set [1] of 1.64.

In the case of `COCC(O)c1cccc(N)c1` (stereo not drawn) [IVc-I-7, 1-(3-Aminophenyl)-2-methoxyethanol], the “logP (pH2.3)” value in data set [1] (pH 2.3) is recorded as 0.73.

In data set [1], `CC(O)c1cccc(Nc2ncc(Br)c(NC3CC3)n2)c1` (stereo not drawn) [Ic-IV-2, 1-(3 -{[5-Bromo-4-(cyclopropylamino)pyrimidin-2-yl]amino}phenyl)ethanol] returned a chromatographic logP of 1.31.

In turn, `CC(O)c1cccc(Nc2ncc(C(F)(F)F)c(NC3CC3)n2)c1` (stereo not drawn) [Ic-IV-3, 1-(3 -{[4-(Cyclopropylamino)-5-(trifluoromethyl)pyrimidin-2-yl]amino}phenyl)ethanol] gave a chromatographic logP in data set [1] of 2.01.

`CCC(Cl)c1cccc([N+](=O)[O-])c1` (stereo not drawn) [VIIa-1, 1-(1-Chloropropyl)-3-nitrobenzene]: the chromatographic logP in data set [1] came out at 3.31.

As to `CCC(SC)c1cccc([N+](=O)[O-])c1` (stereo not drawn) [VIc-I-1, 1-[1-(Methylsulphanyl)propyl]-3-nitrobenzene], in data set [1], the chromatographic logP is 3.51.

`CSC(C)c1cccc([N+](=O)[O-])c1` (stereo not drawn) [VIc-I-2, 1-[1-(Methylsulphanyl)ethyl]-3-nitrobenzene]: the chromatographic logP in data set [1] is 3.06.

With `CCSC(CC)c1cccc([N+](=O)[O-])c1` (stereo not drawn) [VIc-I-3, 1-[1-(Ethylsulphanyl)propyl]-3-nitrobenzene], in data set [1], the chromatographic logP is 3.96.

`CCSC(C)c1cccc([N+](=O)[O-])c1` (stereo not drawn) [VIc-I-4, 1-[1-(Ethylsulphanyl)ethyl]-3-nitrobenzene] had a chromatographic logP in data set [1] of 3.48.

Consider `CCCSc1cccc(Nc2ncc(C(F)(F)F)c(Cl)n2)c1` [Xa-1, 4-Chloro-N-[3-(propylsulphanyl)phenyl]-5-(trifluoromethyl)pyrimidin-2-amine], for which, in data set [1], the chromatographic logP was 4.99.

The compound `CC(C)Sc1cccc(Nc2ncc(C(F)(F)F)c(Cl)n2)c1` [Xa-2, 4-Chloro-N-[3-(propan-2-ylsulphanyl)phenyl]-5-(trifluoromethyl)pyrimidin-2-amine] had a chromatographic logP in data set [1] of 4.93.
